Results from patent US8232407B2, “Nitrogenous heterocyclic compounds with insecticidal activity, and the preparation and use thereof” (East China University of Science and Technology, priority 2008, dated 2012).

Experiments:
Assay type in all cases: in vivo
Conditions in all cases: in vivo
Plutella xylostella = assay: Insecticidal activities to diamondback moth, feeding dipped leaves
Method in brief: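 Mortality was scored 24 h after larvae of Plutella xylostella (10 per treatment, 3 repeats) fed on cabbage leaves immersed 3 s in test solution and dried at room temperature. It was computed relative to survivors in a water-treated control.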

Aphis craccivoral = assay: Insecticidal activities to aphids, immersion method
Method in brief: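 Immersion assay: compound diluted from 10 g/L DMF stock to 500 ppm in 0.2 mL/L Triton X-100, sprout-feeding wingless adults dipped 5 s. Kept at 23° C, three repeats; 24 h mortality calculated relative to surviving Triton-treated controls.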

Nilaparvata lugens = assay: Insecticidal activities to plant hopper, spraying method
Method in brief: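 Spray test: acetone solutions of 500 down to 0.79 ppm, 2 ml per tumbler holding 10 planthoppers introduced 6 h earlier, triplicate, aqueous acetone as control. Mortality at 24 h calculated from survivors relative to control.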

[1] = test system: Pseudaletia separate Walker; assay: Insecticidal activities to armyworm, leaf dipping and feeding
Method in brief: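 Armyworms (10 per tumbler, 3 replicates) ate fresh maize leaves that had been immersed for 3 seconds in compound solutions of 1.57-500 ppm in acetone, or in aqueous acetone for controls. Kills were scored at 24 h, and mortality was calculated relative to survivors in the control group.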

For Cc1ccc(C=C(C2=[N+](C)CCN2Cc2ccc(Cl)nc2)[N+](=O)[O-])o1.[Cl-] [Compound 255], which “Plutella xylostella Mortality (%) 500 ppm” value (Plutella xylostella) is on record?
The value was 100%.

And the “Aphis craccivoral Mortality (%) 500 ppm” value (Aphis craccivoral)?
Its value is 100%.

What about the “Nilaparvata lugens Mortality (%) 500 ppm” value (Nilaparvata lugens) of the same compound?
Its value is 100%.

What about the “Pseudaletia separate Walker Mortality (%) 500 ppm” value [1] of the same compound?
The value was 100%.

Which results are given for Cc1coc(C=C(C2=[N+](C)CCN2Cc2ccc(Cl)nc2)[N+](=O)[O-])c1.[Cl-] [Compound 256]?
Plutella xylostella Mortality (%) 500 ppm (Plutella xylostella): 100%; Aphis craccivoral Mortality (%) 500 ppm (Aphis craccivoral): 100%; Nilaparvata lugens Mortality (%) 500 ppm (Nilaparvata lugens): 100%; Pseudaletia separate Walker Mortality (%) 500 ppm [1]: 100%

How did the “Plutella xylostella Mortality (%) 500 ppm” value (Plutella xylostella) turn out when CCc1ccc(C=C(C2=[N+](C)CCN2Cc2ccc(Cl)nc2)[N+](=O)[O-])o1.[Cl-] [Compound 257] was run?
Its value is 100%.

What about the “Aphis craccivoral Mortality (%) 500 ppm” value (Aphis craccivoral) of the same compound?
The value was 100%.

And the “Nilaparvata lugens Mortality (%) 500 ppm” value (Nilaparvata lugens)?
The value was 100%.

What about the “Pseudaletia separate Walker Mortality (%) 500 ppm” value [1] of the same compound?
The value was 100%.

What does the source list for C[N+]1=C(C(=Cc2ccc(CO)o2)[N+](=O)[O-])N(Cc2ccc(Cl)nc2)CC1.[Cl-] [Compound 258]?
Plutella xylostella Mortality (%) 500 ppm (Plutella xylostella): 100%; Aphis craccivoral Mortality (%) 500 ppm (Aphis craccivoral): 100%; Nilaparvata lugens Mortality (%) 500 ppm (Nilaparvata lugens): 100%; Pseudaletia separate Walker Mortality (%) 500 ppm [1]: 100%

C[N+]1=C(C(=Cc2cccs2)[N+](=O)[O-])N(Cc2ccc(Cl)nc2)CC1.[Cl-] [Compound 259] was tested. Which “Plutella xylostella Mortality (%) 500 ppm” value (Plutella xylostella) did it give?
Its value is 100%.

And the “Aphis craccivoral Mortality (%) 500 ppm” value (Aphis craccivoral)?
Its value is 100%.

And the “Nilaparvata lugens Mortality (%) 500 ppm” value (Nilaparvata lugens)?
The value was 100%.

What about the “Pseudaletia separate Walker Mortality (%) 500 ppm” value [1] of the same compound?
Its value is 100%.

C[N+]1=C(C(=Cc2ccsc2)[N+](=O)[O-])N(Cc2ccc(Cl)nc2)CC1.[Cl-] [Compound 260] was tested. Which “Plutella xylostella Mortality (%) 500 ppm” value (Plutella xylostella) did it give?
The value was 89%.

And the “Aphis craccivoral Mortality (%) 500 ppm” value (Aphis craccivoral)?
Its value is 90%.

What about the “Nilaparvata lugens Mortality (%) 500 ppm” value (Nilaparvata lugens) of the same compound?
The value was 92%.

And the “Pseudaletia separate Walker Mortality (%) 500 ppm” value [1]?
The value was 80%.

Which results are given for C[N+]1=C(C(=Cc2ccc([N+](=O)[O-])s2)[N+](=O)[O-])N(Cc2ccc(Cl)nc2)CC1.[Cl-] [Compound 261]?
Plutella xylostella Mortality (%) 500 ppm (Plutella xylostella): 100%; Aphis craccivoral Mortality (%) 500 ppm (Aphis craccivoral): 100%; Nilaparvata lugens Mortality (%) 500 ppm (Nilaparvata lugens): 100%; Pseudaletia separate Walker Mortality (%) 500 ppm [1]: 100%

With C[N+]1=C(C(=Cc2ccc(Cl)s2)[N+](=O)[O-])N(Cc2ccc(Cl)nc2)CC1.[Cl-] [Compound 262] as the compound, how does the “Plutella xylostella Mortality (%) 500 ppm” value (Plutella xylostella) read?
The value was 100%.

What about the “Aphis craccivoral Mortality (%) 500 ppm” value (Aphis craccivoral) of the same compound?
The value was 100%.

And the “Nilaparvata lugens Mortality (%) 500 ppm” value (Nilaparvata lugens)?
The value was 100%.

And the “Pseudaletia separate Walker Mortality (%) 500 ppm” value [1]?
The value was 100%.

For C[N+]1=C(C(=Cc2ccc(Br)s2)[N+](=O)[O-])N(Cc2ccc(Cl)nc2)CC1.[Cl-] [Compound 263], which “Plutella xylostella Mortality (%) 500 ppm” value (Plutella xylostella) is on record?
The value was 100%.

And the “Aphis craccivoral Mortality (%) 500 ppm” value (Aphis craccivoral)?
The value was 100%.

What about the “Nilaparvata lugens Mortality (%) 500 ppm” value (Nilaparvata lugens) of the same compound?
Its value is 100%.

And the “Pseudaletia separate Walker Mortality (%) 500 ppm” value [1]?
Its value is 100%.

For C[N+]1=C(C(=Cc2cc(Cl)cs2)[N+](=O)[O-])N(Cc2ccc(Cl)nc2)CC1.[Cl-] [Compound 264], which “Plutella xylostella Mortality (%) 500 ppm” value (Plutella xylostella) is on record?
The value was 100%.

What about the “Aphis craccivoral Mortality (%) 500 ppm” value (Aphis craccivoral) of the same compound?
The value was 100%.

And the “Nilaparvata lugens Mortality (%) 500 ppm” value (Nilaparvata lugens)?
Its value is 100%.

And the “Pseudaletia separate Walker Mortality (%) 500 ppm” value [1]?
Its value is 100%.

How did the “Plutella xylostella Mortality (%) 500 ppm” value (Plutella xylostella) turn out when C[N+]1=C(C(=Cc2cc(Br)cs2)[N+](=O)[O-])N(Cc2ccc(Cl)nc2)CC1.[Cl-] [Compound 265] was run?
Its value is 100%.

And the “Aphis craccivoral Mortality (%) 500 ppm” value (Aphis craccivoral)?
Its value is 100%.

And the “Nilaparvata lugens Mortality (%) 500 ppm” value (Nilaparvata lugens)?
Its value is 100%.

And the “Pseudaletia separate Walker Mortality (%) 500 ppm” value [1]?
The value was 100%.

How did the “Plutella xylostella Mortality (%) 500 ppm” value (Plutella xylostella) turn out when C[N+]1=C(C(=Cc2cc(Cl)c(Cl)s2)[N+](=O)[O-])N(Cc2ccc(Cl)nc2)CC1.[Cl-] [Compound 266] was run?
Its value is 100%.

And the “Aphis craccivoral Mortality (%) 500 ppm” value (Aphis craccivoral)?
Its value is 100%.

What about the “Nilaparvata lugens Mortality (%) 500 ppm” value (Nilaparvata lugens) of the same compound?
Its value is 100%.

And the “Pseudaletia separate Walker Mortality (%) 500 ppm” value [1]?
Its value is 100%.

How did the “Plutella xylostella Mortality (%) 500 ppm” value (Plutella xylostella) turn out when C[N+]1=C(C(=Cc2sc(Cl)cc2Cl)[N+](=O)[O-])N(Cc2ccc(Cl)nc2)CC1.[Cl-] [Compound 267] was run?
Its value is 100%.

And the “Aphis craccivoral Mortality (%) 500 ppm” value (Aphis craccivoral)?
The value was 100%.

What about the “Nilaparvata lugens Mortality (%) 500 ppm” value (Nilaparvata lugens) of the same compound?
The value was 100%.

What about the “Pseudaletia separate Walker Mortality (%) 500 ppm” value [1] of the same compound?
The value was 100%.

Which “Plutella xylostella Mortality (%) 500 ppm” value (Plutella xylostella) does the source give for C[N+]1=C(C(=Cc2cc(Br)c(Br)s2)[N+](=O)[O-])N(Cc2ccc(Cl)nc2)CC1.[Cl-] [Compound 268] here?
Its value is 100%.

What about the “Aphis craccivoral Mortality (%) 500 ppm” value (Aphis craccivoral) of the same compound?
The value was 100%.

What about the “Nilaparvata lugens Mortality (%) 500 ppm” value (Nilaparvata lugens) of the same compound?
Its value is 100%.

And the “Pseudaletia separate Walker Mortality (%) 500 ppm” value [1]?
The value was 100%.

What does the source list for C[N+]1=C(C(=Cc2sc(Br)cc2Br)[N+](=O)[O-])N(Cc2ccc(Cl)nc2)CC1.[Cl-] [Compound 269]?
Plutella xylostella Mortality (%) 500 ppm (Plutella xylostella): 100%; Aphis craccivoral Mortality (%) 500 ppm (Aphis craccivoral): 100%; Nilaparvata lugens Mortality (%) 500 ppm (Nilaparvata lugens): 100%; Pseudaletia separate Walker Mortality (%) 500 ppm [1]: 100%

For Cc1ccc(C=C(C2=[N+](C)CCN2Cc2ccc(Cl)nc2)[N+](=O)[O-])s1.[Cl-] [Compound 270], which “Plutella xylostella Mortality (%) 500 ppm” value (Plutella xylostella) is on record?
Its value is 100%.

And the “Aphis craccivoral Mortality (%) 500 ppm” value (Aphis craccivoral)?
Its value is 100%.

What about the “Nilaparvata lugens Mortality (%) 500 ppm” value (Nilaparvata lugens) of the same compound?
Its value is 100%.

And the “Pseudaletia separate Walker Mortality (%) 500 ppm” value [1]?
Its value is 100%.

Cc1csc(C=C(C2=[N+](C)CCN2Cc2ccc(Cl)nc2)[N+](=O)[O-])c1.[Cl-] [Compound 271] was tested. Which “Plutella xylostella Mortality (%) 500 ppm” value (Plutella xylostella) did it give?
The value was 100%.

What about the “Aphis craccivoral Mortality (%) 500 ppm” value (Aphis craccivoral) of the same compound?
Its value is 100%.

And the “Nilaparvata lugens Mortality (%) 500 ppm” value (Nilaparvata lugens)?
The value was 100%.

And the “Pseudaletia separate Walker Mortality (%) 500 ppm” value [1]?
The value was 100%.

Which results are given for CCc1ccc(C=C(C2=[N+](C)CCN2Cc2ccc(Cl)nc2)[N+](=O)[O-])s1.[Cl-] [Compound 272]?
Plutella xylostella Mortality (%) 500 ppm (Plutella xylostella): 100%; Aphis craccivoral Mortality (%) 500 ppm (Aphis craccivoral): 100%; Nilaparvata lugens Mortality (%) 500 ppm (Nilaparvata lugens): 100%; Pseudaletia separate Walker Mortality (%) 500 ppm [1]: 100%

For C[N+]1=C(C(=Cc2ccc(CO)s2)[N+](=O)[O-])N(Cc2ccc(Cl)nc2)CC1.[Cl-] [Compound 273], which “Plutella xylostella Mortality (%) 500 ppm” value (Plutella xylostella) is on record?
The value was 100%.

And the “Aphis craccivoral Mortality (%) 500 ppm” value (Aphis craccivoral)?
Its value is 100%.

And the “Nilaparvata lugens Mortality (%) 500 ppm” value (Nilaparvata lugens)?
Its value is 100%.

And the “Pseudaletia separate Walker Mortality (%) 500 ppm” value [1]?
The value was 100%.

How did the “Plutella xylostella Mortality (%) 500 ppm” value (Plutella xylostella) turn out when C[N+]1=C(C(=Cc2ccc[nH]2)[N+](=O)[O-])N(Cc2ccc(Cl)nc2)CC1.[Cl-] [Compound 274] was run?
Its value is 100%.

What about the “Aphis craccivoral Mortality (%) 500 ppm” value (Aphis craccivoral) of the same compound?
The value was 100%.

And the “Nilaparvata lugens Mortality (%) 500 ppm” value (Nilaparvata lugens)?
Its value is 100%.

And the “Pseudaletia separate Walker Mortality (%) 500 ppm” value [1]?
Its value is 100%.

For Cn1cccc1C=C(C1=[N+](C)CCN1Cc1ccc(Cl)nc1)[N+](=O)[O-].[Cl-] [Compound 275], which “Plutella xylostella Mortality (%) 500 ppm” value (Plutella xylostella) is on record?
Its value is 100%.

And the “Aphis craccivoral Mortality (%) 500 ppm” value (Aphis craccivoral)?
Its value is 100%.

And the “Nilaparvata lugens Mortality (%) 500 ppm” value (Nilaparvata lugens)?
The value was 100%.

And the “Pseudaletia separate Walker Mortality (%) 500 ppm” value [1]?
Its value is 100%.

Which “Plutella xylostella Mortality (%) 500 ppm” value (Plutella xylostella) does the source give for C[N+]1=C(C(=Cc2ccoc2)[N+](=O)[O-])N(Cc2cnc(Cl)s2)CC1.[Cl-] [Compound 276] here?
The value was 100%.

And the “Aphis craccivoral Mortality (%) 500 ppm” value (Aphis craccivoral)?
Its value is 100%.

What about the “Nilaparvata lugens Mortality (%) 500 ppm” value (Nilaparvata lugens) of the same compound?
Its value is 100%.

What about the “Pseudaletia separate Walker Mortality (%) 500 ppm” value [1] of the same compound?
The value was 100%.

Which “Plutella xylostella Mortality (%) 500 ppm” value (Plutella xylostella) does the source give for C[N+]1=C(C(=Cc2ccc([N+](=O)[O-])o2)[N+](=O)[O-])N(Cc2cnc(Cl)s2)CC1.[Cl-] [Compound 277] here?
Its value is 100%.

And the “Aphis craccivoral Mortality (%) 500 ppm” value (Aphis craccivoral)?
The value was 100%.

And the “Nilaparvata lugens Mortality (%) 500 ppm” value (Nilaparvata lugens)?
The value was 100%.

What about the “Pseudaletia separate Walker Mortality (%) 500 ppm” value [1] of the same compound?
Its value is 100%.

With C[N+]1=C(C(=Cc2ccc(Cl)o2)[N+](=O)[O-])N(Cc2cnc(Cl)s2)CC1.[Cl-] [Compound 278] as the compound, how does the “Plutella xylostella Mortality (%) 500 ppm” value (Plutella xylostella) read?
The value was 100%.

And the “Aphis craccivoral Mortality (%) 500 ppm” value (Aphis craccivoral)?
Its value is 100%.

And the “Nilaparvata lugens Mortality (%) 500 ppm” value (Nilaparvata lugens)?
Its value is 100%.

What about the “Pseudaletia separate Walker Mortality (%) 500 ppm” value [1] of the same compound?
Its value is 100%.

C[N+]1=C(C(=Cc2ccc(Br)o2)[N+](=O)[O-])N(Cc2cnc(Cl)s2)CC1.[Cl-] [Compound 279] was tested. Which “Plutella xylostella Mortality (%) 500 ppm” value (Plutella xylostella) did it give?
The value was 100%.

And the “Aphis craccivoral Mortality (%) 500 ppm” value (Aphis craccivoral)?
The value was 100%.

And the “Nilaparvata lugens Mortality (%) 500 ppm” value (Nilaparvata lugens)?
The value was 100%.

What about the “Pseudaletia separate Walker Mortality (%) 500 ppm” value [1] of the same compound?
Its value is 100%.
